Source: doi:10.1101/2023.08.01.551199v1, “Activation of cannabinoid CB2 receptors by (−)-cannabichromene but not (+)-cannabichromene” (biorxiv, 2023)

Columns and labels:
Assay type in all cases: cell-based
[1] = target: T1, human TRPA1 (Homo sapiens, UniProt O75762); test: fluorescent intracellular calcium assay (FLIPR Ca5), HEK293-TRPA1 cells; conditions: agonist; 37 °C, pH 7.4, 0.1% DMSO, 1.25 mM probenecid
T1 construct: tetracycline-induced expression in HEK293 FlpIn/T-REx cells

[2] = target: T2, human CB2 (Homo sapiens, UniProt P34972); test: fluorescent membrane potential assay (MPA Blue), AtT20-CB2 cells; conditions: 37 °C, pH 7.4, 0.1% DMSO; no activation up to the highest concentration tested
T2 construct: gene CNR2; stably expressed in AtT20 FlpIn cells

[3] = target: T1, human TRPA1; test: fluorescent intracellular calcium assay (FLIPR Ca5), HEK293-TRPA1 cells
Description: fluorescent intracellular calcium assay (FLIPR Ca5), HEK293-TRPA1 cells on human TRPA1 | In HEK293-TRPA1 cells cinnamaldehyde produced an increase in Ca5 fluorescence

T1 sequence (O75762 whole entry): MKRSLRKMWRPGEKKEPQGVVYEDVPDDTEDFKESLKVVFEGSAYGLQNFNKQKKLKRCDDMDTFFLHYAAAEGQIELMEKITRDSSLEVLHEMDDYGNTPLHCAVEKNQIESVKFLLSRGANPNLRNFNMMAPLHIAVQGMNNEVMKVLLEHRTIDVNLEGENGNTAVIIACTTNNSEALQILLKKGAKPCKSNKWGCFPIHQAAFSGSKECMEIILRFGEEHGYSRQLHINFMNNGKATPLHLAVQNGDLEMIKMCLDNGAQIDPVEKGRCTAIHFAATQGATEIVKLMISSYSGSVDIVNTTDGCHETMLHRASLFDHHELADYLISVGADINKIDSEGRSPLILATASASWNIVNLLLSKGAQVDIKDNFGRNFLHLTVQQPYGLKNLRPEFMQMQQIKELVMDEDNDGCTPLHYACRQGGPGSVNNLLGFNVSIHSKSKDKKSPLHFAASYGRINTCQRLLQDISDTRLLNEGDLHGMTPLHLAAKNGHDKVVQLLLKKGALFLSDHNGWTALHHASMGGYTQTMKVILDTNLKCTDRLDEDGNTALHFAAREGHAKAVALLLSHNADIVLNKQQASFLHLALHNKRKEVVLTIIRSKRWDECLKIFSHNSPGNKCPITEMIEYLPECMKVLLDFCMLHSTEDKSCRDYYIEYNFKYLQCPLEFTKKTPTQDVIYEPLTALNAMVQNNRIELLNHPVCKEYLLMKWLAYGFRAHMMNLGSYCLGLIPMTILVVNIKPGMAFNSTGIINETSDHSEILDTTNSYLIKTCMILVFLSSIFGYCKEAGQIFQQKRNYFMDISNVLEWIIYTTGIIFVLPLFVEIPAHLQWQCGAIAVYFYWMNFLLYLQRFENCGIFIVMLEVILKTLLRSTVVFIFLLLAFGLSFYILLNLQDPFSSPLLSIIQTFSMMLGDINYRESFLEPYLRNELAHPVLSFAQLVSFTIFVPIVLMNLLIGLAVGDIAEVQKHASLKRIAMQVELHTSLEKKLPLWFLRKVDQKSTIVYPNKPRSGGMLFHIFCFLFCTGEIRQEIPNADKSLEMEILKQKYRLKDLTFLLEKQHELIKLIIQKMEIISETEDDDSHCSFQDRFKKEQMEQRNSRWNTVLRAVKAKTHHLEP
T2 sequence (P34972 whole entry): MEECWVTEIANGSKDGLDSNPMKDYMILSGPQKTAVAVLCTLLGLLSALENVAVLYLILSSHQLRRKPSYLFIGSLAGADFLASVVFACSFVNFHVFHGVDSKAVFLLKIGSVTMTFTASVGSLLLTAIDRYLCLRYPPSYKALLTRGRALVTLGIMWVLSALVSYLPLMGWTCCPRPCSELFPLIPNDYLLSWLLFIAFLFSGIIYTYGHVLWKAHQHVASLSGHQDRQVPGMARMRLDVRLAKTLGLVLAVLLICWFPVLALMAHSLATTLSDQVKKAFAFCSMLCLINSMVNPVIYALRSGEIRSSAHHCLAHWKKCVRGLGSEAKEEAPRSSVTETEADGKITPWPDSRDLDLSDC

SMILES	increase in fluorescence at 30 μM [1]	EC50 [2]	EC50 [3]
CCCCCc1cc(O)c2c(c1)OC(C)(CCC=C(C)C)C=C2 (single isomer, unassigned; (+)) [(+)-CBC]	159 ± 27%	> 30 µM	–
O=CC=Cc1ccccc1 [cinnamaldehyde]	–	–	11 µM
